From patent US11065335B2, “Methods of treating leukemia using compositions containing bis(benzylthio)octanoic acid and ion pairs thereof” (Rafael Pharmaceuticals, Inc., priority 2007, dated 2021)
Where a name gives a salt, the structure may show the parent alone.

What was measured:
[1] = system: A2780 ovarian tumor cells and BXPC3 human pancreatic cancer cells; assay: CellTiter Glo cell viability assay, text statements not split by cell line; format: cell-based; conditions: vehicle alone 3200 μM
Protocol: Two types of human tumor cells were used in this investigation: BXPC3 human pancreatic cancer cells and A2780 human ovarian cancer cells. The BXPC3 cells were originally obtained from American Type Cell Culture (ATCC). […] The tumor cells were split at a ratio of 1:5 every 4-5 days by trypsinization and resuspended in fresh medium in a new flask. Cells were harvested for experiments at 70-90% confluency.
(§1) The corresponding vehicle concentrations were 64, 32, 16, 12, and 4 mM respectively. A sixty-four mM aliquot of vehicle was dissolved in 10 mL of water. […] A 5 μL aliquot of this stock solution was added to 95 μL of tumor cells in media. Upon dilution in the wells, the corresponding drug concentrations were 400, 200, 100, 75 and 25 μM respectively.
This gave a 16 mM solution.
This stock was further diluted serially in complete media to give 8 mM, 4 mM 2 mM, 1.5 mM and 0.5 mM working solutions.
The tumor cells were treated for 24 hrs with the test article in serum-containing medium. After 24 hrs of treatment the number of viable tumor cells was determined.
The number of cells targeted for the study was 4×10^3 per well in 100 μL of medium. The actual number of cells were counted and seeded in the wells of a 96 well-plate.
For each cell line the concentrations of test articles or vehicles specified above was used. Five μL of the working solution for each test article or vehicle was added to 95 μL of cell culture media. The corresponding final concentrations of test articles are 20 fold more diluted than the working solutions. […] Additionally, a set of wells was treated with cell culture medium in the absence of cells to obtain a value for background luminescence.
The number of viable cells was determined by using the CellTiter Glo® Assay. Specifically, reagents were mixed and allowed to come to room temperature according to instructions from Promega, Inc. (Madison, Wis.). Cell plates were removed from the cell culture incubator and left on the bench for 30 minutes until they reach room temperature. A one-hundred μL aliquot CellTiter Glo® reagent was added to each well with a 12-channel Eppendorf pipettor. The cells were lysed by shaking the plate for 2 minutes in a shaker. Then, the cells were kept at room temperature for 10 minutes to stabilize the luminescent signal. The luminescence was measured using the FLUOstar OPTIMA plate reader (BMG Labtech, Inc., Durham, N.C.).
Data from luminescence readings was copied onto EXCEL spreadsheets, and cell growth relative to untreated cells was calculated, using the following equation: […]
The calculated values were imported into SigmaPlot, v11. A Four-Parameter Logistic Curve of the “mean relative cell growth as a function of the concentrations of the test articles” was generated. The EC50 values were determined from the curves. The R-squared value provides an indication of the degree of fitness of data to the curve. For each experiment, the percentage of viable cells was be expressed as the mean of 9 replicates. The average was calculated by taking the mean±standard deviation of the three experiments.

[2] = CellTiter Glo cell viability assay, BXPC3 cells; conditions: human, BXPC3 Cell Viability; for viability: 24 hrs
Protocol: (§2) Two types of human tumor cells were used in this investigation: BXPC3 human pancreatic cancer cells and A2780 human ovarian cancer cells. The BXPC3 cells were originally obtained from American Type Cell Culture (ATCC). The ovarian tumor cells were gifts from Roswell Park Cancer Institute, Buffalo, N.Y. All tumor cells were maintained at 37° C. in a humidified 5% CO2 atmosphere in T75 tissue culture flasks containing 20 mL of Roswell Park Memorial Institute (RPMI) 1640 containing 2 mM L-glutamine, 10% fetal bovine serum (FBS) and 1% penicillin and streptomycin (100 IU/mL penicillin and 100 μg/mL streptomycin). The tumor cells were split at a ratio of 1:5 every 4-5 days by trypsinization and resuspended in fresh medium in a new flask. Cells were harvested for experiments at 70-90% confluency.
as §1, with “CPI-613 (i.e., 6,8-bis(benzylthio)octanoic acid) stock solutions at concentrations of 8, 4, 2, 1.5 and 0.5 mM were prepared in the appropriate vehicles. The molar ratio of vehicle to CPI-613 was maintained at 8:1. The” for “The”, “water. Next, 8 mM of CPI-613 was added and the mixture was stirred until a clear solution was obtained.” for “water.”
(§3) For the sodium salt and potassium salt form of CPI-613, 1 equivalent of CPI-613 solid was dissolved in water. Sixty-two mg of CPI-613 (0.00016 mol) was added to 10 mL of water, then 165 μL of 1M NaOH or KOH was added and stirred until a clear solution was obtained. This gave a 16 mM solution. The resulting 16 mM solution was then serially diluted, thereby providing 8 mM and 4 mM solutions of the CPI-613 salt form. For the ammonium salt, vehicle to drug ratio was maintained at 8:1 and the formulation was prepared using procedures analogous to those described above in Section 2 relating to preparation of CPI-613 formulations in different vehicles.
(§4) CPI-613 formulated in 1M triethanolamine (TEA) was used as an internal control during formulation screening. To prepare a 16 mM of working stock of CPI-613, 50 mg/mL of CPI-613 (128.66 mM of CPI-613 in 1M TEA) was diluted in complete cell culture media containing 10% FBS. That is, 310 μL of a 128.66 mM solution of CPI-613 in 1M TEA was added to 2.19 mL of cell culture media. This stock was further diluted serially in complete media to give 8 mM, 4 mM 2 mM, 1.5 mM and 0.5 mM working solutions. On the day of testing, 5 μL of this working solution was added to 95 μL of cell culture media (20 fold dilution) resulting final concentrations of 400, 200, 100, 75 and 25 μM CPI-613, respectively. The ratio of CPI-613 to TEA was maintained at 1:8 ratio at all times.
(§5) The cell viability of CPI-613 formulations formulated at a ratio of 1:8, CPI-613 to vehicle, was assessed by exposing the A2780 ovarian tumor cells and BXPC3 human pancreatic cancer cells to the following CPI-613 concentrations: 400 μM (3200 μM vehicle), 200 μM (1600 μM vehicle), 100 μM (800 μM vehicle), 75 μM (600 μM vehicle) and 25 μM (200 μM vehicle) The impact of corresponding vehicles at 3200, 1600 and 800 μM concentrations was also tested in tumor cells for cell viability. […] CPI-613 in TEA was used as an internal control. The tumor cells were treated for 24 hrs with the test article in serum-containing medium. After 24 hrs of treatment the number of viable tumor cells was determined.
(§6) The number of cells targeted for the study was 4×10^3 per well in 100 μL of medium. The actual number of cells were counted and seeded in the wells of a 96 well-plate. The cells were incubated for ˜24 hrs before addition of CPI-613.
(§7) For each cell line the concentrations of test articles or vehicles specified above was used.

[3] = CellTiter Glo cell viability assay, A2780 cells; conditions: human, A2780 Cell Viability; for viability: 24 hrs
Protocol: as §2
as §1, with “CPI-613 (i.e., 6,8-bis(benzylthio)octanoic acid) stock solutions at concentrations of 8, 4, 2, 1.5 and 0.5 mM were prepared in the appropriate vehicles. The molar ratio of vehicle to CPI-613 was maintained at 8:1. The” for “The”, “water. Next, 8 mM of CPI-613 was added and the mixture was stirred until a clear solution was obtained.” for “water.”
as §3, §4, §5, §6, §7

[4] = system: BXPC3 human pancreatic cancer cells; assay: CellTiter Glo cell viability assay, BXPC3 cells; conditions: 24 hrs; for BXPC3 Cell Viability (alkali salt formulations): CPI-613 to base 1:1
Protocol: as §2
as §1, with “CPI-613 (i.e., 6,8-bis(benzylthio)octanoic acid) stock solutions at concentrations of 8, 4, 2, 1.5 and 0.5 mM were prepared in the appropriate vehicles. The molar ratio of vehicle to CPI-613 was maintained at 8:1. The” for “The”, “water. Next, 8 mM of CPI-613 was added and the mixture was stirred until a clear solution was obtained.” for “water.”
as §3, §4, §5, §6, §7

[5] = system: A2780 human ovarian cancer cells; assay: CellTiter Glo cell viability assay, A2780 cells; conditions: 24 hrs; for A2780 Cell Viability (alkali salt formulations): CPI-613 to base 1:1
Protocol: as §2
as §1, with “CPI-613 (i.e., 6,8-bis(benzylthio)octanoic acid) stock solutions at concentrations of 8, 4, 2, 1.5 and 0.5 mM were prepared in the appropriate vehicles. The molar ratio of vehicle to CPI-613 was maintained at 8:1. The” for “The”, “water. Next, 8 mM of CPI-613 was added and the mixture was stirred until a clear solution was obtained.” for “water.”
as §3, §4, §5, §6, §7

[6] = BXPC3 pancreatic cancer cells, vehicle alone 800 μM
[7] = BXPC3 pancreatic cancer cells, vehicle alone 1600 μM
[8] = BXPC3 pancreatic cancer cells, vehicle alone 3200 μM
[9] = A2780 ovarian cancer cells, vehicle alone 800 μM
[10] = A2780 ovarian cancer cells, vehicle alone 1600 μM
[11] = A2780 ovarian cancer cells, vehicle alone 3200 μM

Compound	impact of vehicle on cancer cell killing [1]	viability at 24 h, 800 μM [2, 6] [%]	viability at 24 h, 1600 μM [2, 7] [%]	viability at 24 h, 3200 μM [2, 8] [%]	viability at 24 h, 800 μM [3, 9] [%]	viability at 24 h, 1600 μM [3, 10] [%]	viability at 24 h, 3200 μM [3, 11] [%]	also measured
CCN(CC)CC [Triethylamine]	did not show a significant impact on cancer cell killing	> 95	> 95	> 95	> 95	> 95	> 95	–
NCCCC[C@H](N)C(=O)O [Lysine]	did not show a significant impact on cancer cell killing	> 95	> 95	> 95	> 95	> 95	> 95	–
CCNCC [Diethylamine]	did not show a significant impact on cancer cell killing	–	–	–	–	–	–	viability at 24 h, 800 μM ([2]; vehicle alone 800 μM): > 95%; viability at 24 h, 1600 μM ([2]; vehicle alone 1600 μM): 70 to 85%; viability at 24 h, 3200 μM ([2]; vehicle alone 3200 μM): < 70%; viability at 24 h, 800 μM ([3]; vehicle alone 800 μM): > 95%; viability at 24 h, 1600 μM ([3]; vehicle alone 1600 μM): > 95%; viability at 24 h, 3200 μM ([3]; vehicle alone 3200 μM): 85 to 95%
NCCN [Ethylenediamine]	appear to have come cell killing effects	> 95	70 to 85	< 70	85 to 95	85 to 95	< 70	–
CC(O)CN(CC(C)O)CC(C)O (stereo not drawn) [Triisopropanolamine]	appear to have come cell killing effects	–	–	–	–	–	–	viability ([2]; vehicle alone 800 μM): > 95%; viability ([2]; vehicle alone 1600 μM): > 95%; viability ([2]; vehicle alone 3200 μM): 70 to 85%; viability ([3]; vehicle alone 800 μM): > 95%; viability ([3]; vehicle alone 1600 μM): > 95%; viability ([3]; vehicle alone 3200 μM): 70 to 85%
OCCNCCO [Diethanolamine]	did not show a significant impact on cancer cell killing	85 to 95	85 to 95	85 to 95	85 to 95	85 to 95	> 95	–
NCCO [Ethanolamine]	–	85 to 95	85 to 95	85 to 95	> 95	> 95	> 95	–
NCCCO [3-amino-1-proponol]	did not show a significant impact on cancer cell killing	–	–	–	–	–	–	–
NC(CO)(CO)CO [Tris base]	did not show a significant impact on cancer cell killing	> 95	> 95	> 95	> 95	> 95	> 95	–
O=C(O)CCCCC(CCSCc1ccccc1)SCc1ccccc1 (stereo not drawn) [CPI-613 potassium salt]	–	–	–	–	–	–	–	BXPC3 Cell Viability (alkali salt formulations) ([4]; CPI-613 25 μM): + (tumor cell viability of >95%); BXPC3 Cell Viability (alkali salt formulations) ([4]; CPI-613 75 μM): ++ (tumor cell viability of >70% up to 95%); BXPC3 Cell Viability (alkali salt formulations) ([4]; CPI-613 100 μM): ++ (tumor cell viability of >70% up to 95%); BXPC3 Cell Viability (alkali salt formulations) ([4]; CPI-613 200 μM): +++ (tumor cell viability of >30% up to 70%); BXPC3 Cell Viability (alkali salt formulations) ([4]; CPI-613 400 μM): +++++ (tumor cell viability of ≤10%); cell kill in BXPC3 cells ([4]; salt formulation at 200 μM): ~50%; cell kill in BXPC3 cells ([4]; salt formulation at 400 μM): all the cells were killed; A2780 Cell Viability (alkali salt formulations) ([5]; CPI-613 25 μM): ++ (tumor cell viability of >70% up to 95%); A2780 Cell Viability (alkali salt formulations) ([5]; CPI-613 75 μM): ++ (tumor cell viability of >70% up to 95%); A2780 Cell Viability (alkali salt formulations) ([5]; CPI-613 100 μM): ++ (tumor cell viability of >70% up to 95%); A2780 Cell Viability (alkali salt formulations) ([5]; CPI-613 200 μM): +++ (tumor cell viability of >30% up to 70%); A2780 Cell Viability (alkali salt formulations) ([5]; CPI-613 400 μM): +++++ (tumor cell viability of ≤10%); cell kill in A2780 cells ([5]; salt formulation at 200 μM): ~65%; cell kill in A2780 cells ([5]; salt formulation at 400 μM): all the cells were killed
CC(O)CNCC(C)O (stereo not drawn) [Diisopropanolamine]	appear to have come cell killing effects	–	–	–	–	–	–	–
Aminopropanediol	did not show a significant impact on cancer cell killing	–	–	–	–	–	–	–
